Test results from patent US20230321082A1, “USE OF TRIAZOLE ANALOGUES FOR INHIBITION OF A TRIPARTITE VOR PROTEIN COMPLEX IN MULTICELLULAR ORGANISMS” (TECHNISCHE UNIVERSITÄT DRESDEN, priority 2020, published 2023).

Tests used:
[1] = target: T1, tripartite VAP-A, ORP3 and Rab7 (VOR) protein complex (Homo sapiens, UniProt Q9H4L5); assay: VOR complex integrity in whole SW480 cells (anti-ORP3 immunoisolation, Rab7 co-immunoisolation); type: cell-based; settings: 10 μM, 5 hours
T1 construct: solubilized and subjected to immunoisolation (IS) using anti-ORP3 Ab followed by Protein G-coupled magnetic beads; endogenous in cells; host or cells: SW480 cells
T1 sequence (Q9H4L5 1-887): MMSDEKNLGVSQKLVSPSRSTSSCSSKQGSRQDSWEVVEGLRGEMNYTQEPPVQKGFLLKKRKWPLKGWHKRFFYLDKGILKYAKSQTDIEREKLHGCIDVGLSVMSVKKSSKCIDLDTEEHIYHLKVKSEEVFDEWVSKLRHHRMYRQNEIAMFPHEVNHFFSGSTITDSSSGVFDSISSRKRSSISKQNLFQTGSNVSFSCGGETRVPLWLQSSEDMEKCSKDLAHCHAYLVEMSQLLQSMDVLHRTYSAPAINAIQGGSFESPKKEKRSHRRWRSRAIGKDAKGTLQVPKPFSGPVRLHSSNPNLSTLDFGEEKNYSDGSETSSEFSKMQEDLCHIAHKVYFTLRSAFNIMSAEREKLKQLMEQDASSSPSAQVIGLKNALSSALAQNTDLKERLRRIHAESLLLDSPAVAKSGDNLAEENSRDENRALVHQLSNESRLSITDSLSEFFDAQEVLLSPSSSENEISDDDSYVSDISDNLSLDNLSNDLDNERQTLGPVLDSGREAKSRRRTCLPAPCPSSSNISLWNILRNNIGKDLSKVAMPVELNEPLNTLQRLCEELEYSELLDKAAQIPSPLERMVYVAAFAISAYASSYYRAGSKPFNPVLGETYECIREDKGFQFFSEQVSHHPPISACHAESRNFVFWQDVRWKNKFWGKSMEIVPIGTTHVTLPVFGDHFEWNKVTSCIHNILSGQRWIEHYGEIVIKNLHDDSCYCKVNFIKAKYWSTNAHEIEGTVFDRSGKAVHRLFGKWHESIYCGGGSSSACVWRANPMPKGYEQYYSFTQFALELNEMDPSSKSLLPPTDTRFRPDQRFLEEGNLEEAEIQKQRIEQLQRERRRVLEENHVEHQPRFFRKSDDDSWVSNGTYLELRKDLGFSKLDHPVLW
T1 sequence (Q9P0L0 1-249 partner): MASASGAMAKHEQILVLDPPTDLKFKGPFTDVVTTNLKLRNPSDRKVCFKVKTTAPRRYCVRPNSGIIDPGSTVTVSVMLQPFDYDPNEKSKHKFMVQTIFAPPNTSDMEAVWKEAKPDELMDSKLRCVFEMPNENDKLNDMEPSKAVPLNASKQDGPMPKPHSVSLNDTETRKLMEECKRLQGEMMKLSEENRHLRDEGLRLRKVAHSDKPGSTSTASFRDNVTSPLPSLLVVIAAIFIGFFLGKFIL
Experimental: SW480 cells were incubated with DMSO solvent alone (control), 10 μM ICZ, triazole compound 5, compound 3 or ketoconazole for 5 hours, solubilized and subjected to immunoisolation (IS) using anti-ORP3 Ab followed by Protein G-coupled magnetic beads. The input (1/50, for Rab7 only) and entire bound fractions were probed by immunoblotting for ORP3, VAP-A and Rab7. The Rab7/VAP-A ratios were quantified (n=3). The mean±S.D. are shown. P values are indicated.

[2] = target: T1, tripartite VAP-A, ORP3 and Rab7 (VOR) protein complex; assay: VOR complex integrity in detergent SW480 cell lysates (anti-ORP3 immunoisolation, Rab7 co-immunoisolation); type: biochemical; settings: 10 μM, 30 minutes on ice
Experimental: Detergent SW480 cell lysates were incubated with DMSO solvent alone (control), 10 μM ICZ, triazole compound 5, compound 3 or ketoconazole for 30 minutes on ice, and then subjected to immunoisolation (IS) using anti-ORP3 Ab followed by Protein G-coupled magnetic beads. The input (1/50, for Rab7 only) and entire bound fractions were probed by immunoblotting for ORP3, VAP-A and Rab7. The Rab7/VAP-A ratios were quantified (n=3). The mean±S.D. are shown. P values are indicated. […] Referring to FIGS. 12A, 12B, 12C and 12D illustrate the effects of various triazole compounds on the VOR complex integrity. Detergent SW480 cell lysates were incubated with DMSO solvent alone (control), 2.5 μM (FIG. 12A), 5 μM (FIG. 12B), 7.5 μM (FIG. 12C) or 10 μM (FIG. 12D) ICZ and triazole compounds for 30 minutes on ice and then subjected to immunoisolation (IS) using anti-ORP3 Ab followed by Protein G-coupled magnetic beads. The entire bound fractions were probed by immunoblotting for ORP3, VAP-A and Rab7 (data not shown). The percent inhibition of Rab7 expression were quantified and compared to the control sample (dashed line).

Cancer SW480 cells = assay: MTS cell viability, SW480 cells; type: cell-based; settings: 10 μM, 24, 48 and 72 hours
Experimental: (§1) Referring to FIG. 11, illustrates that triazole analogues were not toxic for cells. Cancer SW480 cells (left panel) and primary mesenchymal stromal cells (right panel) were incubated with DMSO solvent alone (control), 10 μM ICZ, compound 5, compound 3 or ketoconazole (KCZ) for 24, 48 and 72 hours as indicated. At the end of each time point, MTS tetrazolium compound (3-(4,5-dimethylthiazol-2-yl)-5-(3-carboxymethoxyphenyl)-2-(4-sulfophenyl)-2H-tetrazolium) was added for 1 hour to evaluate the amounts of viable cells. The absorbance value was measured at 490 nm. The mean±S.D. are shown (n=6). **, p<0.01.

[3] = tested on: primary mesenchymal stromal cells; assay: MTS cell viability, primary mesenchymal stromal cells; type: cell-based; settings: 10 μM, 24, 48 and 72 hours
Experimental: as §1

[4] = tested on: HIV-1 integrase in HeLa cells; assay: Transport of HIV-1 integrase into the nucleoplasmic reticulum (IN-2 immunolabelling); type: cell-based; settings: 10 μM, 30 minutes pretreatment, HIV-Gag-iGFP infection 1 hour
Experimental: (A) HeLa cells were pretreated with 10 μM of drugs as indicated for 30 minutes before HIV-Gag-iGFP infection for 1 hour in the presence of drugs. As controls, DMSO was used (DMSO, HIV-infected cells; control, uninfected cells). Cells were fixed and processed for double immunolabelling for VAP-A and HIV IN (IN-2). […] (B) HeLa cells expressing Rab7-RFP were treated as in panel A, and then double immunolabelled for SUN2 and IN-2. Scale bars, 10 (A) and 5 (B) μm.
Referring to FIG. 19A, B illustrates the quantification of IN-2 immunoreactivity in SUN2^+ NEI (A, 50 NEIs were assessed per experiment, n=3, individual values of each experiment is indicated) and the IN-2 nucleoplasm/cytoplasm ratio per cell (B, n=150 cells from three independent experiments) on HeLa cells treated with drugs as indicated (see FIG. 18B). Means±S.D. with individual values for each experiment (A) are shown. N.s., not significant; ***, p<0.001.

host cells = assay: NEI-associated late endosomes and nuclear transfer of EV-derived components after importazole treatment; type: cell-based
Text: Referring to FIGS. 1A, 1B and 1C, illustrate data showing the localization and tripartite structure of a VOR complex. […] Typically, EVs are transported to late endosomes after their endocytosis, wherein the EVs facilitate intercellular communication in diverse cellular processes.

SW480 cells [5] = assay: Entry of Rab7+ late endosomes in SUN2+ NEI, confocal microscopy; type: cell-based; settings: 10 μM, 5 hours
Experimental: Referring to FIG. 8, illustrates that the triazole compound 5 inhibited the entry of Rab7^+ late endosomes in NEI. SW480 cells were incubated with DMSO (control), 10 μM ICZ, triazole compound 5, triazole compound 3 or ketoconazole (KCZ) for 5 hours prior to double immunolabelling for Rab7 and nuclear membrane protein SUN2 and the staining with cholesterol-binding compound filipin. Cells were analyzed by confocal laser scanning microscopy (left panel). Arrows indicate SUN2^+ NEI and arrowheads point to Rab7 and filipin-labelled cholesterol therein. […] The mean±S.D. are shown. P values are indicated. N.s., not significant. Scale bars, 5 μm.

SW480 cells [6] = assay: EV-induced pro-metastatic morphological transformation; type: cell-based; settings: 10 μM, 10 minutes pre-treatment, EVs 1×10^9 particles/ml, 5 hours
Experimental: Referring to FIG. 9, illustrates that the triazole compound 5 inhibited EV-induced pro-metastatic morphological transformation. SW480 cells were pre-treated with DMSO solvent alone (control), 10 μM ICZ, triazole compound 5 or compound 3 for 10 minutes prior to incubation without or with EVs (1×10^9 particles/ml) derived from metastatic SW620 cells for 5 hours. Cell morphology was analyzed by confocal laser scanning microscopy upon CD9 immunolabelling (data not shown). Bar graphs show the percentage of cells harboring a rounded (left panel) or blebbed (right panel) morphology upon exposure to EVs. The mean±S.D. are shown. At least 50 cells were evaluated per condition and independent experiment (n=6).

SW480 cells [7] = assay: Nuclear transfer of EV cargo (CD9-GFP); type: cell-based; settings: 10 μM, 10 minutes pre-treatment, 5-hour incubation with EVs
Experimental: SW480 cells were pre-treated for 10 minutes with DMSO (control), 10 μM ICZ, triazole compound 5, triazole compound 3 or ketoconazole (KCZ) prior to 5-hour incubation with melanoma cell-derived CD9-green fluorescent protein (GFP)^+ EVs in the absence or presence of drugs. Recipient cells were then fixed and immunolabelled for the nuclear membrane protein SUN2. The amounts of EV-derived CD9-GFP in the nuclear compartments were analyzed by confocal laser scanning microscopy and quantified using Fiji software. Nuclear CD9-GFP was evaluated from 50 cells per condition and a representative experiment with mean±S.D. are shown. P values are indicated. N.s., not significant.

SW480 cells [8] = assay: Scratch wound healing assay, EV-induced migration; type: cell-based; settings: 10 μM, EVs from SW620 cells 7.5×10^8 particles/ml, 5 hours
Experimental: Referring to FIG. 16, illustrates images of the scratch wound healing assay of SW480 cells treated with 10 μM drugs (ICZ, compound 5) without or with EVs (7.5×10^8 particles/ml) derived from SW620 cells for 5 hours (upper panels). The mean±S.E.M. (n=2 independent experiments) is presented (lower panel).

[9] = tested on: HIV-Gag-iGFP infection of HeLa cells; assay: HIV-1 productive infection (HIV-Gag-iGFP expression); type: cell-based; settings: 10 μM pretreatment, infection 6 hours, then 24 hours in presence of drugs
Experimental: Referring to FIG. 20A-C, illustrates the impact of drugs on productive infection. HeLa cells pretreated with drugs as above before HIV-Gag-iGFP infection for 6 hours, washed, and incubated for 24 hours in the presence of drugs. Samples were processed either for immunocytochemistry or flow cytometry analyses. DMSO was used as solvent vehicle. […] Dashed line represents DMSO-treated, noninfected cells as a negative control. […] The percentage of GFP^+ cells as assessed by flow cytometry is plotted (C). Means±S.D. with individual values for each experiment are shown. Cy, cytoplasm; Pm, plasma membrane; n.s., not significant; ***, p<0.001.

Row | Compound | co-immunoisolation of Rab7 with ORP3 (Rab7/VAP-A ratio) [1] | co-immunoisolation of Rab7 with ORP3 (Rab7/VAP-A ratio) [2] | toxicity for cells (MTS, viable cells) (Cancer SW480 cells) | toxicity for cells (MTS, viable cells) [3] | transport of HIV-1 integrase into the nucleoplasmic reticulum (IN-2 immunoreactivity in NEI) [4] | NEI-associated late endosomes (host cells) | transfer of EV-derived components into the nucleoplasm of host cells (host cells) | Rab7 and cholesterol in SUN2+ NEI (SW480 cells [5]) | entry of Rab7+ late endosomes in NEI (SW480 cells [5]) | morphological transformation (rounded or blebbed) induced by EVs from metastatic SW620 cells (SW480 cells [6]) | nuclear transfer of EV cargo (EV-derived CD9-GFP in nuclear compartments) (SW480 cells [7]) | migration of SW480 cells induced by EVs (SW480 cells [8]) | Gag-iGFP expression (productive infection) [9]
1 | CC(=O)N1CCN(c2ccc(OCC3COC(Cn4ccnc4)(c4ccc(Cl)cc4Cl)O3)cc2)CC1 (centres unmarked) [ketoconazole, reference compound] | do not | do not |  |  |  |  |  |  |  |  |  |  | 
2 | O=c1[nH]ncn1-c1ccc(Cl)cc1 [compound 3, 4-(4-Chlorophenyl)-2,4-dihydro-3H-1,2,4-triazol-3-one] | do not | do not | not toxic | not toxic | detected in NEI |  |  |  |  |  |  |  | 
3 | CC(Nc1nc(N2CCCC2)nc2ccccc12)c1ccccc1 (centres unmarked) [importazole] |  |  |  |  |  | lack of the NEI-associated late endosomes | inhibition of transfer |  |  |  |  |  | 
4 | CCC(C)n1ncn(-c2ccc(Cl)cc2)c1=O (centres unmarked) [compound 5, 2-(butan-2-yl)-4-(4-chlorophenyl)-2,4-dihydro-3H-1,2,4-triazol-3-one] | inhibit the co-immunoisolation of Rab7 | inhibits the co-immunoisolation of Rab7 | not toxic | not toxic | inhibit the transport of HIV-1 integrase into the nucleoplasmic reticulum |  |  | absence of Rab7 and cholesterol | inhibited | inhibited the morphological transformation | inhibited the nuclear transfer of EV cargo | inhibit the migration | reduction in Gag-iGFP expression
